Data taken from patent US20250269043A1, “TARGETED BIFUNCTIONAL DEGRADERS” (YALE UNIVERSITY, priority 2019, published 2025).

Experiments:
[1] = molecular target: asialoglycoprotein receptor on the surface of immortalized human hepatocyte HepG2 cells (human) (UniProt P07306); assay: flow cytometry competition on HepG2 cells: ASOR against DNP-AF3 (40 nM)-mediated association of α-DNP antibody (100 nM) with ASGPR
[2] = molecular target: asialoglycoprotein receptor on the surface of immortalized human hepatocyte HepG2 cells (human) (UniProt P07306); assay: cell-based or functional assay
α-DNP antibody = assay: In vivo depletion of α-DNP antibody from serum in mice (ELISA); details: FIG. 95
Method: FIG. 94 illustrates that serum levels of α-DNP antibody decrease more rapidly following repeated treatment with DNP-GN3. Serum antibody levels were measured using an ELISA assay. Each experimental group contained three mice. Statistical differences in experiments involving in vivo depletion of α-DNP antibody were assessed by repeated measures two-way ANOVA with Tukey's tests for post-hoc comparison of simple effects between each of the treatment groups and PBS.
Single doses of DNP-GN3 were also found to be efficacious at mediating α-DNP antibody depletion, albeit less effectively than daily dosing (FIG. 96). […] Therefore, it was concluded that DNP-GN3 is able to mediate the depletion of a monoclonal antibody from serum, and functions across a wide range of target protein concentrations and dosing regimens.
DNP-GN3 was also found to be efficacious in depleting polyclonal α-DNP antibody from serum collected from mice immunized with DNP-keyhole limpet haemocyanin (KLH) (FIG. 97). […] Thus, the small molecule DNP-GN3 is not restricted in function to only monoclonal mouse antibodies, but is also effective at removing polyclonal α-DNP antibodies from circulation in mice.

HepG2 cells [3] = assay: DNP-AF3-mediated α-DNP antibody endocytosis by HepG2 cells (flow cytometry); type: cell-based, human; details: 40 nM DNP-AF3, 100 nM antibody; for effect of competitive binders on DNP-AF3-mediated α-DNP antibody endocytosis: ASF 2.07 μM, AF and GalNAc 1.25 mM, FIG. 105; for effect of endocytic pathway inhibitors on DNP-AF3-mediated α-DNP antibody endocytosis: FIG. 106
Method: The intracellular fluorescence of cells that were incubated at 37° C. with both fluorescently labeled α-DNP antibody and DNP-AF3 for a given amount of time was examined. Cells were then washed, removed from the plate with trypsin, and subjected to flow cytometry.
It was then determined if reagents which inhibit ternary complex formation inhibit endocytosis mediated by DNP-AF3.
Next, whether inhibitors of specific endocytic pathways inhibited α-DNP antibody endocytosis was determined (FIG. 106).

HepG2 cells [4] = assay: DNP-GN3-mediated endocytosis of fluorescently labeled α-DNP antibody by adherent HepG2 cells; type: cell-based, human; details: sodium azide and 2-deoxyglucose as combined treatment; FIG. 89
Method: It was next explored whether DNP-GN3 mediates the endocytosis of fluorescently labeled α-DNP antibody.
To explore the cellular mechanism of antibody uptake, cells were treated with chemical inhibitors of several endocytic pathways (FIG. 89).

HepG2 cells [5] = assay: MIF-GN3-mediated endocytosis of Alexa 488-labeled human MIF by HepG2 cells; details: for effect of endocytic pathway inhibitors on MIF-GN3-mediated MIF endocytosis: MIF 100 nM, MIF-GN3 200 nM, FIG. 132
Method: Human MIF protein was fluorescently labeled with Alexa 488 NHS ester, then incubated with HepG2 cells in the presence of varying levels of MIF-GN3.
The ability of MIF-GN3 to mediate MIF endocytosis over a wide range of target protein concentrations was assessed.
Next, inhibitors of various endocytic pathways were utilized to determine if MIF-GN3 mediates MIF endocytosis in a manner consistent with ASGPR (FIG. 132).

human MIF [6] = molecular target: T1, human MIF (Homo sapiens, UniProt P14174); assay: Depletion of injected recombinant human MIF from serum in mice; type: in vivo; parameters: injected into mice; details: control molecules injected along with human MIF; FIG. 136
T1 sequence (P14174 2-115 limits assumed): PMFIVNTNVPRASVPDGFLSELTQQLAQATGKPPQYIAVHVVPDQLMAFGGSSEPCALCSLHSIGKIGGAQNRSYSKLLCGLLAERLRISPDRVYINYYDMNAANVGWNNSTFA
Method: In vivo human MIF depletion experiments were undertaken to determine whether MIF-GN3 can mediate the depletion of injected recombinant human MIF from serum in mice. Mice were injected with five μg of the human MIF protein. In this experiment, one group of mice was also injected with a single 10 mpk dose of MLF-GN3 along with human MIF protein. It was observed that after four hours, the average level of human MIF in serum in the PBS-treated mice was 1.76 ng/mL (FIG. 134). In mice treated with 10 mpk MIF-GN3, however, the concentration of human MIF in serum was 0.68 ng/mL. One day after the initial injection, human MIF levels had reached background levels for both conditions. […] It was hypothesized that, due to the short half-life of human MIF in serum, investigating human MIF levels at earlier time points may be more informative.
Next, an experiment was performed to determine whether MIF-GN3 could enhance MIF clearance at time points earlier than four hours. Mice were coinjected with recombinant human MIF and 10 mpk MIF-GN3 via either i.p. or i.v. routes. For the PBS control arms, human MIF was injected with PBS. It was observed that in the absence of MIF-GN3, there was a spike in huMIF levels in circulation after 30 minutes (FIG. 135). In the presence of MIF-GN3, however, levels of MIF protein remained low at 30 minutes and no spike in its concentration was observed. By two hours, the levels of human MIF in circulation decreased to background levels.
In a further experiment, whether an inhibitor of the MIF protein (3w) is able to mediate the protein's depletion from serum was determined. A bifunctional molecule that mediates the depletion of α-DNP antibody from serum was also assayed as a negative control. Neither of these molecules was expected to mediate the formation of a ternary complex between human MIF protein and ASGPR.

PC3 cells = assay: PC3 human prostate cancer cell tumor model in mice; type: in vivo; details: MIF-GN3 at 10 mpk; control arms DNP-GN3 and 3w; FIG. 138
Method: The ability of MIF-GN3 to mediate the depletion of MIF in a therapeutically relevant disease model was investigated. […] An experiment was conducted to determine whether the bifunctional molecule MIF-GN3 can deplete sufficient human MIF from serum to slow PC3 tumor growth. Mice were injected with an aliquot of PC3 cells, and the size of the resultant tumors as well as the levels of human MIF in serum were monitored over five weeks. […] Five weeks after the initial PC3 cell injection, the first of the mice reached maximal tumor size ([…]) and was sacrificed (FIG. 138). […] The decrease in human MIF levels mediated by MIF-GN3 is consistent with a mechanism of action in which MIF-GN3 mediates the depletion and degradation of circulating MIF protein. While the α-MIF antibody would not necessarily be expected to decrease the levels of human MIF, it is possible that the antibody mediates MIF neutralization in a manner which masks its signal as determined by ELISA. Alternatively, the α-MIF antibody may mediate depletion or degradation of huMIF by some endocytic mechanism. Another possible explanation is that the α-MIF antibody decrease serum levels of active human MIF to such an extent at early time points that PC3 cells proliferate much more slowly, and therefore fewer cells are actively secreting human MIF.
Mice were sacrificed when their tumor volumes reached 1000 mm^3. […] At this same time point, less than 25% of the mice in any other arm had survived.

human MIF [7] = molecular target: T1, human MIF; assay: Depletion of human MIF from cell culture supernatant (sandwich ELISA); type: cell-based; details: 24 hours; FIG. 128B
Method: The ability of bifunctional MIF-binding molecules to mediate the depletion of human MIF from cell culture was investigated. In these assays, human MIF was present at a concentration of 100 nM, and a sandwich ELISA assay was utilized to measure the concentration of human MIF remaining in the cell culture supernatant. The closely related bifunctional molecules MIF-GN3, MIF-PEG2-GN3, and MIF-PEG4-GN3 were used, as well as the structurally dissimilar molecule MIF-NVS-PEG3-GN3. […] Based on the ease of its synthesis and its efficacy in this experiment, MIF-GN3 was utilized for further studies. It was next investigated whether the MIF inhibitor 3w mediates MIF depletion from cell culture supernatant. […] When cells were treated with 3w, no depletion of exogenous MIF protein was observed after 24 hours (FIG. 128B).
Bifunctional molecules containing optimized ASGPR-binding motifs are also capable of mediating MIF depletion from cell culture supernatant (FIG. 129). The MIF-binding molecule MIF-AF1, which contains only a single ASGPR-binding sugar, was not effective at mediating depletion of MIF from supernatant at any concentration tested. It is hypothesized that this is due to the compound's low predicted affinity for ASGPR (μM range). […] At a concentration of either 200 nM or 1 μM, MIF-AF2 mediated nearly 100%/o depletion of MLF from the cell culture supernatant after 48 hours. […] In contrast to these molecules, which utilize optimized synthetic ASGPR ligands, the GalNAc-based molecule MIF-GN3 mediated only 67.0% and 56.0% removal of MIF from supernatant after 48 hours at concentrations of 1 μM and 200 nM, respectively. […] At a concentration of 40 nM (4.0 pmol of molecule), MIF-AF3 mediates the removal of 83.2% of MIF present in the cell culture supernatant, or 8.32 pmol of human MIF protein. Therefore, it was concluded that under the conditions of this experiment, MIF-AF3 mediates the depletion of 2.08 molar equivalents of MIF protein.

[8] = molecular target: human IgG (Alexa 488-labeled) (human); assay: cell-based or functional assay

Sequence of asialoglycoprotein receptor on the surface of immortalized human hepatocyte HepG2 cells (human) (P07306 whole entry, chain 1 of 2): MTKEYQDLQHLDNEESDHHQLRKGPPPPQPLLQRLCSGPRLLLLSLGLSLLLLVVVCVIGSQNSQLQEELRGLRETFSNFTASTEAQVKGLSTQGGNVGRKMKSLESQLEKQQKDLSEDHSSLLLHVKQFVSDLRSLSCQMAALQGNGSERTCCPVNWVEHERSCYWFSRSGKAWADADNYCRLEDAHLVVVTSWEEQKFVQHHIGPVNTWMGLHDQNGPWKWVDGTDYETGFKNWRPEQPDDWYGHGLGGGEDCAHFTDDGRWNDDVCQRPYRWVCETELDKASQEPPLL
Sequence of asialoglycoprotein receptor on the surface of immortalized human hepatocyte HepG2 cells (human) (P07307 whole entry, chain 2 of 2, further chain): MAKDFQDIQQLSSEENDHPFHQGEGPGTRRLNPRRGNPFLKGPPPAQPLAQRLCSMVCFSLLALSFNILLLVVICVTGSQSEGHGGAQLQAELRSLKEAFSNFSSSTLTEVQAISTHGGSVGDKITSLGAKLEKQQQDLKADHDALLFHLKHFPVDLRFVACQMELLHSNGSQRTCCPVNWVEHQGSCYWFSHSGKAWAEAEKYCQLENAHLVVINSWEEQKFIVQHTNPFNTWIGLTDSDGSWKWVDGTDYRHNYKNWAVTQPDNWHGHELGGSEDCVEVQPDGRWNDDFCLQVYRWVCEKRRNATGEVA

Compound | effect of endocytic pathway inhibitors on intracellular fluorescence (DNP-GN3-mediated uptake) (HepG2 cells [4]) | effect of endocytic pathway inhibitors on MIF-GN3-mediated MIF endocytosis (HepG2 cells [5]) | effect of endocytic pathway inhibitors on DNP-AF3-mediated α-DNP antibody endocytosis (HepG2 cells [3]) | also measured
asialoorosomucoid (ligand) | – | – | – | percent decrease of ternary complex formation at 2.38 µM ASOR [1]: 70%; mean fluorescence of the cell population (DNP-AF3-mediated α-DNP antibody endocytosis, HepG2, flow cytometry); about 1.31e6 without inhibitor (mean fluorescence) [2]: 466000
O=C(CCOCC(COCCC(=O)NCCOCCOCCO)(COCCC(=O)NCCOCCOCCO)NC(=O)CNC(=O)COCCOCCOCCNc1ccc([N+](=O)[O-])cc1[N+](=O)[O-])NCCOCCOCCO [DNP-OH3] | – | – | – | antibody depletion from serum after negative control compound (α-DNP antibody): No accelerated antibody depletion; effect of competitive binders on DNP-AF3-mediated α-DNP antibody endocytosis (HepG2 cells [3]): decreased to near-background levels
O=CC[C@@H](O)[C@H](O)[C@H](O)CO [2-deoxyglucose] | significantly decreased | decreased significantly | significant decrease | –
C[C@@H]1[C@H](O)[C@@H](C)/C=C/C=C/CC/C=C/C=C/C=C/C=C/C(O[C@H]2O[C@H](C)[C@@H](O)[C@H](N)[C@@H]2O)CC2O[C@](O)(CC(O)C(O)CCC(O)CC(O)CC(O)CC(=O)O[C@H]1C)CC(O)C2C(=O)O (stereo partly shown) [nystatin, Nystatin] | did not significantly decrease | did not decrease | did not significantly decrease | –
CC(=O)N[C@H]1C(O)O[C@H](CO)[C@H](O)[C@@H]1O (stereo partly shown) [GalNAc, N-acetylgalactosamine] | – | – | – | effect of competitive binders on DNP-AF3-mediated α-DNP antibody endocytosis (HepG2 cells [3]): significantly decreased
Oc1ccc(-n2cc(-c3ccc4cc(OCCOCCN5CCOCC5)ccc4n3)nn2)cc1F [Compound 3w] | – | – | – | human MIF concentration in serum compared to the PBS control (human MIF [6]): no significant decreases; tumor growth (PC3 cells): not found to decrease tumor growth; depletion of exogenous MIF protein from cell culture supernatant (human MIF [7]): no depletion
O=c1c(-c2ccc(O)cc2)coc2cc(O)cc(O)c12 [genistein, Genistein] | – | – | did not significantly decrease | toxicity of endocytosis inhibitors to cells (HepG2 cells [5]; HepG2 cells in the presence of MIF and MIF-GN3): toxic
FcIII-BCN-GN3 (peptide) | – | – | – | uptake of human IgG by HepG2 cells; most effective concentration of FcIII-BCN-GN3 [8]: 1 µM
N=C(N)NC(=O)c1nc(Cl)c(N)nc1N [amiloride, Amiloride] | did not significantly decrease | did not impact cellular fluorescence significantly | decrease in cellular fluorescence | –
COc1ccc2c(c1)c(CC(=O)O)c(C)n2C(=O)c1ccc(Cl)cc1 [indomethacin, Indomethacin] | – | did not decrease | did not significantly decrease | –
FcIII-GN3 (oxidized cyclized form) (peptide) | – | – | – | uptake of Alexa 488-labeled human IgG by HepG2 cells; concentration of FcIII-GN3 giving maximal uptake [8]: 200 nM
OC[C@H]1O[C@@](CO)(O[C@H]2O[C@H](CO)[C@@H](O)[C@H](O)[C@H]2O)[C@@H](O)[C@@H]1O [sucrose] | significantly decreased | near background levels | – | –
CCN(CC)CCCC(C)Nc1ccnc2cc(Cl)ccc12 (stereo not shown) [chloroquine, Chloroquine] | significantly decreased | near background levels | – | –
C=C1[C@@H](C)[C@H]2[C@H](Cc3ccccc3)NC(=O)[C@]23[C@H](OC(C)=O)/C=C/[C@@](C)(O)C(=O)[C@@H](C)C/C=C/[C@H]3[C@@H]1O [CytD] | – | – | non-significant decrease | –
